For data set [1] the following is noted: cited from earlier work.
The nature of data set [2]: Release from 10 wt % bifunctional UPy-PEG10k hydrogel into PBS. The class given is physicochemical. As for the experimental part:
The UPy-PEG10k liquid carrier composition was prepared by dissolving the UPy-PEG10k powder in PBS at elevated pH by stirring at 70° C. for 1 h using a magnetic stirrer (e.g. 10 mg in 90 μl PBS pH 11.7 for a 10 wt % hydrogel). Afterwards the viscous solution was cooled to RT with a resulting pH of approximately 9.0. […] The obtained composition is a liquid composition at this pH.
100 μL of the solutions were transferred to Millicell hanging cell culture inserts (PIEP12R48/MCEP24H48) and immediately placed in a 24-well plate with 600 μL PBS per well. Contact with the neutral PBS through the membrane of the insert results in gelation of the liquid carrier, forming the hydrogel. At set time-points the PBS was refreshed and the removed PBS was analyzed for MMC or MPC content. Analysis was performed by measuring UV absorption and converted to concentration via predetermined standard curves. […] […]. Release of MPC can be correlated to the erosion of the hydrogel. The initial goal to couple cholesterol to MMC to slow down the release from the hydrogel is accomplished hereby.

A further data set concerns CC531 cells. The conditions noted are these: approximately 24 hour incubation; for Efficacy: MTT; for EC50: global sigmoidal fit of three assays, n=8, ±SD.
Data set [3] is described as follows: Stability measurements by UV absorption in PBS. The conditions noted are these: 200 mg/L, day 0-13.

The values below come from US20200164078A1, “APPLICABLE CHEMICAL COMPOSITION COMPRISING AN AGENT CONJUGATED TO A HYDROPHOBIC MOIETY AND A CARRIER” (TECHNISCHE UNIVERSITEIT EINDHOVEN, priority 2017, published 2020).

“Also recorded” adds a separate entry of the source.

Method for CC531 cells: After approximately 24 hour incubation in the cell incubator, 25 μL of freshly prepared MTT solution (5 mg/mL in PBS, filtered through 0.2 μm filter) was added to the wells and incubated for 2 hours. The medium was then completely removed and replaced with 125 μL 0.04 M HCl in isopropanol and incubated for 1 hour. After gently mixing, 100 μl of the isopropanol solution was transferred to a Costar EIA/RIA 96 transparent flat bottom wells plate. The absorbance was measured at 570 nm with 650 nm as reference. Absorbance of MTT was read out on a Tecan Saffire 2 plate reader and Tecan Spark 10M plate reader. Values were normalized to untreated cells. The complete assay was performed three times for CC531 cells. All data sets were used together to fit a global sigmoidal dose response curve with a shared slope and center, giving one EC50 per cell line. A concatenate fit was plotted through the MTT results for visualization. […] Every experiment n=8, ±SD.

As for `CC(C)CCC[C@@H](C)[C@H]1CC[C@H]2[C@@H]3CC=C4C[C@@H](O)CC[C@]4(C)[C@H]3CC[C@]12C` [Cholesterol], the Water solubility entry in data set [1] is recorded as “Less than 0.000095 mg/mL)”.
Consider `COc1cccc2c1C(=O)c1c(O)c3c(c(O)c1C2=O)C[C@@](O)(C(C)=O)C[C@@H]3O[C@H]1C[C@H](N)[C@H](O)[C@H](C)O1` [Daunorubicin], for which the Water solubility in data set [1] was 39 µg/mL.
For the compound `COc1cccc2c1C(=O)c1c(O)c3c(c(O)c1C2=O)C[C@@](O)(C(=O)CO)C[C@@H]3O[C@H]1C[C@H](N)[C@H](O)[C@H](C)O1` [Doxorubicin], the Water solubility in data set [1] is 1180 µg/mL.
`Nc1ccn([C@@H]2O[C@H](CO)[C@@H](O)C2(F)F)c(=O)n1` [Gemcitabine]: the Water solubility in data set [1] is 51300 µg/mL.
In general, EC50 refers to the midpoint of the concentration-response curve. Regarding `CO[C@@]12[C@H](COC(N)=O)C3=C(C(=O)C(C)=C(N)C3=O)N1C[C@@H]1N[C@@H]12` [MMC, Mitomycin C], the “Release (%)” value in data set [2] (0.3 mM in gel, time 0.05 day) came out at 38.93%; in data set [2] (0.3 mM in gel, time 0.21 day), 69.58%; in data set [2] (0.3 mM in gel, time 1.00 day) it was 86.44%; in data set [2] (3 mM in gel, time 0.06 day) it was 34.09%; in data set [2] (3 mM in gel, time 0.17 day), 58.33%; in data set [2] (3 mM in gel, time 0.38 day) it was 79.92%. For the same compound, the “Release (%)” value in data set [2] (3 mM in gel, time 1.00 day) was 95.83%; in data set [2] (3 mM in gel, time 2.00 day), 102.65%. For the same compound, in data set [2] (10 wt % UPy-PEG10k hydrogel, diffusion kinetics), the “Time of release from the hydrogel” value is on record as “approximately 24 hours”. The Efficacy result with CC531 cells is recorded as “approximately 100%”. The EC50 in the data set with CC531 cells came to 19.6 ± 3.2 µM. The “Stability (UV absorption spectra)” value in data set [3] (pH 6.5, 37° C.) was “unstable; also recorded: degrades”; in data set [3] (pH 7.4, 4° C.) it was “stable”; in data set [3] (pH 7.4, 37° C.) it was “stable”.
Turning to Mitomycin-PEG24-Cholesterol [MPC], in the data set with CC531 cells, the Efficacy result was “approximately 100%” and the EC50 is 3.8 ± 1.1 µM.
